For the test, the target named is T1, human ChaC1 (ChaC1p) (Homo sapiens, UniProt Q9BUX1).
T1 sequence (Q9BUX1 1-222): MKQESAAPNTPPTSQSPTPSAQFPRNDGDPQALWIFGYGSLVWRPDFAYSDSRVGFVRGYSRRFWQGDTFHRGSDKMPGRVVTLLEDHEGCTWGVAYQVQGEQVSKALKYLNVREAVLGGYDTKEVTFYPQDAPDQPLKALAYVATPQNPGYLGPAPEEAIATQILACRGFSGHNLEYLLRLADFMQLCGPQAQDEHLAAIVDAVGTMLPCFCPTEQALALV
As to the kind of experiment: ChaC1p-Dug1p coupled assay, cysteine by ninhydrin. The class given is biochemical.

Turning to `O=C1C=CC(=O)c2c(O)cccc21` [juglone], the half-inhibitory concentration (IC50) (usually the concentration that inhibits the measured activity by half) came out at 8.7 µM.

For the origin of these results see publication doi:10.1101/2024.07.21.604522v1 (biorxiv, 2024).
